Columns and labels:
[1] = target: T1, Pyrococcus furiosus TrpB variant PfTrpB^0B2 (P12L, E17G, I68V, T292S, F274S, T321A), SEQ ID NO: 12 (Pyrococcus furiosus, UniProt Q8U093, E17G/F274S/I68V/P12L/T292S/T321A); test: Tryptophan formation from L-serine and indole, kinetics of PfTrpB^0B2
T1 sequence (Q8U093 with tags, fused parts or gaps P12L/E17G/I68V/F274S/T292S/T321A): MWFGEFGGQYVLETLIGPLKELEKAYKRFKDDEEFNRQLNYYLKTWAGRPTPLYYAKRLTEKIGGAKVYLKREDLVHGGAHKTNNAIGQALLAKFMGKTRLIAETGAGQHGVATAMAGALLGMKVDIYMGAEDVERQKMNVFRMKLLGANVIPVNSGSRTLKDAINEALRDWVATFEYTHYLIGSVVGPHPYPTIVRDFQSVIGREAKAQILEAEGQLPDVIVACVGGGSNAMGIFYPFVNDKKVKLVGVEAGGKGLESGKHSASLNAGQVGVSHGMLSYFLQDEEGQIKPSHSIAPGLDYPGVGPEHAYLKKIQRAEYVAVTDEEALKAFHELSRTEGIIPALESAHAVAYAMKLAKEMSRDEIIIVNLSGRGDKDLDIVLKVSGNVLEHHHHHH
Method: Cloning, Expression, and Purification of PfTrpA and PfTrpB. The genes encoding PfTrpB (UNIPROT ID Q8U093) and PfTrpA (UNIPROT ID Q8U094) were obtained as gBlocks and cloned into pET22(b)+ for expression in E. coli BL21 E. cloni EXPRESS cells (Lucigen). Heterologous protein expression of PfTrpA and PfTrpB was performed in Terrific Broth with 100 μg/mL ampicillin (TBamp) and induced with 500 mM IPTG (final concentration 1 mM). PfTrpB was purified via a HisTrap HP column. PfTrpA was purified via a Q HP HiTrap column (flow-through), followed by ammonium sulfate precipitation, and hydrophobic interaction chromatography on a phenyl Sepharose HP HiTrap column (FIG. 3).
Kinetics and UV-Vis Spectroscopy.
PfTrpB^4D11 served as template for a final round of random mutagenesis, for which 1,144 clones were screened.

[2] = target: T2, Thermotoga maritima TrpB variant TmTrpB^T292S, SEQ ID NO: 26 (Thermotoga maritima, UniProt P50909, T292S); test: Tryptophan formation from L-serine and indole, kinetics of TmTrpB^T292S; format: biochemical
T2 sequence (P50909 with tags, fused parts or gaps T292S): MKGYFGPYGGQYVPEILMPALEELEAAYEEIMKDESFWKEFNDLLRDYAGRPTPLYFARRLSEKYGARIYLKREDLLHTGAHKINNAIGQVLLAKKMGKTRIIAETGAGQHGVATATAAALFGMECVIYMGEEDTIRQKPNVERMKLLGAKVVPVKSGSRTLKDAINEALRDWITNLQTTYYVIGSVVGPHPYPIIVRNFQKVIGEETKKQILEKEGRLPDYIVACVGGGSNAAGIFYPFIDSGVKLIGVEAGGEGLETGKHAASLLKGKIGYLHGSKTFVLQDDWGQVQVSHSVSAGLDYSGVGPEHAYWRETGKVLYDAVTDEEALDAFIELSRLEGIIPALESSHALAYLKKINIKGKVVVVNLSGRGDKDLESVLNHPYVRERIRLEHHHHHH
Method: Kinetics and UV-Vis Spectroscopy. Data were collected between 550 and 250 nm on a UV1800 Shimadzu spectrophotometer (Shimadzu) using 0.25-20 μM of enzyme in 200 mM potassium phosphate (pH 8.0) in a quartz cuvette. Samples were incubated at 75° C. for >3 min to ensure a stable temperature was reached. PfTrpB activity (kcat) was measured by monitoring tryptophan formation at 290 nm using Δe290=1.89 mM^−1·cm^−1.
Cloning, expression, and purification of the different orthologs. The genes encoding AfTrpB (UNIPROT ID O28672), TmTrpB (UNIPROT ID P50909) and EcTrpB (UNIPROT ID P0A879) were obtained from IDT and cloned into pET22(b)+ using Gibson Assembly. Protein expression was carried out in E. coli BL21 E. cloni Express cells (Lucigen) by inoculating 10-mL Terrific Broth (with 100 μg/mL ampicillin (TBamp)) with a single colony and incubated over night at 37° C. and 250 rpm. These overnight cultures were used to scale up to 500-mL TBamp expression cultures, which were grown by shaking at 250 rpm and 37° C. for ˜3 h or until an OD600 of 0.8 was reached. Then, after chilling the cultures on ice for 20 min, induction was conducted by the addition of IPTG to a final concentration of 1 mM. Induced cultures were allowed to grow at 250 rpm and 20° C. for another 20 h. After centrifugation, pelleted cells were frozen and stored at −20° C. until further use. For protein purification, thawed cells were resuspended in 50 mM potassium phosphate buffer (KPi, pH 8, 20 mM imidazole and 100 mM NaCl (buffer A)), with 200 μM PLP. Lysis was performed by adding BugBuster (Novagen) and incubating for 15 min at 37° C. Once cells were lysed, they were centrifuged to obtain the soluble protein-rich fraction. In the case of TmTrpB (but not for AfTrpB or EcTrpB), the lysate was then incubated at 75° C. for 20 min and was subjected to another centrifugation step. […]
The next homolog, TmTrpB, was examined. […] The variants without the T292S mutation lacked this probative absorbance peak, but the decrease at 428 nm and concomitant increase at 350 nm are consistent with a similar, though less pronounced activation.

[3] = system: Thermotoga maritima TrpB, wild type (literature); settings: kinetics measured at 80° C., cited from earlier work

c1ccc2[nH]ccc2c1 [indole]
kcat ([1]; 75° C.): 2.9 s⁻¹
kcat increase ([1]; relative to PfTrpB): 9.4 fold
kcat ([2]; 75° C.): 5.8 s⁻¹
increase in kcat more than TmTrpA binding ([2]; relative to TmTrpA binding (TmTrpS)): 3 fold
increase in kcat ([2]; with respect to wild type): 4 fold
kcat [3]: 4.2 s⁻¹
Km ([3]; read-out: KM indole): 40 µM
